Molecules are shown by their SMILES. Entries after “also recorded” stand apart in the source; their conditions may differ. Where a name gives a salt, the structure may show the parent alone. Read-outs that look alike come from different tables or passages of the source. Marks after values point to notes of the source that are not given here.

As a reminder, the Cmax is the maximum level reached in the sampled fluid or tissue. As a reminder, the solubility is the concentration that dissolves in the medium under given conditions.

Data set [1] can be described thus: Bioavailability of diazoxide choline and related molecules. Conditions: male mice; for AUC0-6 / Cmax: Oral gavage, single 50 mg/kg dose; for Relative oral bioavail.: ratio of AUC0-6 to that of the IV dose of diazoxide choline.
Procedure: The study used 4 mice dosed per treatment arm. Following, a single intravenous or oral dose, administered by gavage, pharmacokinetic samples were collected at 4 time points: 0.5, 1, 3, and 6 hours post-dosing. Two mice were sampled at each timepoint, with each mouse contributing samples to two timepoints. Each test drug was administered as a 50 mg/kg dose, which yields nearly equal molar concentrations. […] Blood samples were collected into tubes containing dipotassium EDTA as the anticoagulant and placed on ice packs until centrifugation (at 3000 rpm for 10 minutes at 4° C.). After centrifugation, samples were stored at −70° C. until they were thawed for analysis. Circulating drug levels were measured using a precise and reproducible LC-MS/MS assay.
Data set [2] is described as follows: Solubility screen in organic solvents.
Data set [3] in a line: Polymorph screening crystallizations and characterization of forms (XRPD, DSC, TGA). In kind it is physicochemical. To be noted: for TGA: data indicates a half-molar equivalent of acetone, water, or dioxane for Forms C, D, F. Here is the method:
DSC analysis were conducted with a Mettler 822 DSC, by measuring the amount of energy released by a sample, as the sample was heated from 30° C. to between 300-500° C. at a rate of 10° C./min. Typical applications of DSC analysis include determination of melting point temperature and the heat of melting; measurement of the glass transition temperature; curing and crystallization studies; and identification of phase transformations.
TGA measurements were conducted with a Mettler 851 SDTA/TGA, by measuring weight loss as a function of increasing temperature, as the samples were heated from 30° C. to 230° C. at a rate of 10° C./min. The TCA can be used to analyze desorption and decomposition behavior, characterize oxidation behavior, set burnout or conditioning parameters (temperature/ramp rate/time), and determine chemical composition.
XRPD samples were analyzed with a Shimadzu XRD-6000 system, using a Cu Kα, 40 kV, 40 mA X-ray tube. The divergence and scatter slits were 1.00 deg, and the receiving slit was 0.30 mm. Samples were continuously scanned at a range of 3.0-45.0 deg, with a step size of 0.04 deg., at a scan rate of 2 deg/min.
After hot filtration the vials were placed in a refrigerator (4° C.) for 16 hours. […] All solids were dried in vacuo at ambient temperature and 30 in. Hg.
After hot filtration the vials were then slowly cooled to room temperature at the rate of 20° C./h and stirred at room temperature for 1-2 hours. All solids were dried in vacuo at ambient temperature and 30 in. Hg.
Solvents for crystallizations were chosen based on the solubility screen summarized below.

Data set [4] is described as follows: Moisture sorption analysis. The data set is classed as physicochemical. The protocol: Moisture Sorption Analysis was performed with a Hiden IGAsorp Moisture Sorption Instrument, Samples were first dried at 0% relative humidity at 25° C. until an equilibrium weight was reached, or for a maximum of 4 hours. Samples were then subjected to an isothermal (25° C.) scan from 10-90% relative humidity in steps of 10%. The samples were allowed to equilibrate to an asymptotic weight at each point for a maximum of 4 hours. Following absorption, a desorption scan from […] relative humidity (at 25° C.) was run in steps of −10%, again allowing a maximum of 4 hours for the samples to equilibrate. The resulting samples after desorption were dried at 80° C. for two hours and analyzed by XRPD.

Data set [5] can be described thus: Form conversion and degradation under thermal stress (60° C.). To be noted: for Thermal: 7 days. Here is the method:
Studies were also conducted to evaluate the likelihood for conversion and degradation under thermal stress.

Data set [6] is described as follows: Slurry studies of inter-conversion of the solid form. To be noted: room temperature.
Setting [7] is: 50/50 mixtures of potassium salt Forms C, D, F, ethyl acetate, acetonitrile, isopropanol.
[8] abbreviates: 60° C., closed, protected from light, 7 and 14 days.

Regarding `O=S1(=O)N=C(NC2CCC2)Nc2ccc(Br)cc21`, in data set [1], the AUC0-6 is 0.8 ± 0.126 µg·h/mL, the Cmax stood at 0.181 ± 0.016 µg/mL and the Relative oral bioavail. was determined as 0.6%.

With `CC(C)NC1=NS(=O)(=O)c2cc(Cl)c(F)cc2N1`, in data set [1], the AUC0-6 was found to be 0.313 ± 0.015 µg·h/mL, the peak concentration (Cmax) is 0.08 ± 0.012 µg/mL and the Relative oral bioavail. is 0.2%.

For `O=S1(=O)N=C(NC2CCC2)Nc2ccc(F)cc21`, in data set [1], the AUC0-6 is 0.089 ± 0.016 µg·h/mL, the Cmax was 0.024 ± 0.01 µg/mL and the Relative oral bioavail. was 0.06%.

For the molecule `COc1ccc2c(c1)NC(NC(C)C)=NS2(=O)=O`, in data set [1], the AUC0-6 is 3.59 µg·h/mL, the Cmax is 1.56 µg/mL and the Relative oral bioavail. is recorded as 2.6%.

For the molecule `CC1=NS(=O)(=O)c2cc(Cl)ccc2N1` [Diazoxide Potassium Salt], the Soluble result is “Yes” in data set [2] (Acetone, 0.40 mg/mL, 55 ° C.); “No” in data set [2] (CH2Cl2, […], 55 ° C.); “Yes” in data set [2] (DMF, >6.40 mg/mL, rt); “No” in data set [2] (Dioxane, […], 55 ° C.); “No” in data set [2] (EtOAc, […], 55 ° C.); “Yes” in data set [2] (EtOH, […], 55 ° C.). For the same molecule, the Soluble entry in data set [2] (Heptane, 0.24 mg/mL, 55 ° C.) is reported as “No”; in data set [2] (IPA, […], 55 ° C.) it was “Yes”; in data set [2] (IPAc, […], 55 ° C.), “No”; in data set [2] (MEK, 0.30 mg/mL, 55 ° C.) it was “Partially”; in data set [2] (MTBE, […], 55 ° C.) it was “No”; in data set [2] (MeCN, 0.85 mg/mL, 55 ° C.) it was “Yes”. The Soluble entry in data set [2] (MeOH, 6.00 mg/mL, 55 ° C.) was “Yes”; in data set [2] (THF, […], 55 ° C.) it was “Partially”; in data set [2] (Toluene, […], 55 ° C.) it was “No”; in data set [2] (Water, 0.30 mg/mL, 55 ° C.), “No”; in data set [2] (c-Hexane, 0.30 mg/mL, 55 ° C.), “No”. The Conc. in data set [2] (CH2Cl2, 55 ° C.) is 260 µg/mL; in data set [2] (DMF, rt), above 6400 µg/mL; in data set [2] (Dioxane, 55 ° C.) it was 280 µg/mL; in data set [2] (EtOAc, 55 ° C.), 360 µg/mL; in data set [2] (EtOH, 55 ° C.), 2930 µg/mL; in data set [2] (Heptane, 55 ° C.), 240 µg/mL. The Conc. in data set [2] (IPA, 55 ° C.) was determined as 2100 µg/mL; in data set [2] (IPAc, 55 ° C.) it was 340 µg/mL; in data set [2] (MEK, 55 ° C.), 300 µg/mL; in data set [2] (MTBE, 55 ° C.), 360 µg/mL; in data set [2] (MeCN, 55 ° C.) it was 850 µg/mL; in data set [2] (MeOH, 55 ° C.), 6000 µg/mL. For the same molecule, the Conc. is 360 µg/mL in data set [2] (THF, 55 ° C.); 280 µg/mL in data set [2] (Toluene, 55 ° C.); 300 µg/mL in data set [2] (c-Hexane, 55 ° C.). In data set [2] (water, 55 °C), this molecule returned a solubility of 0.3 mg/mL.

Take `CC1=NS(=O)(=O)c2cc(Cl)ccc2[N-]1.[K+]` [Diazoxide potassium Form C]: in data set [3], the XRPD result is on record as “Crystalline” and the TGA was found to be 8.4%**. Besides, in data set [4], the “Moisture Sorption” value is “Hygroscopic -” and the “Moisture Sorption: deliquesced at” value was “deliquesced at 90% RH”. Moreover, in data set [5], the Thermal result is listed as “Stable (7 days)”.

In the case of `CC1=NS(=O)(=O)c2cc(Cl)ccc2[N-]1.[K+]` [Diazoxide potassium Form D], in data set [3], the XRPD entry is on record as “Crystalline” and the TGA is reported as 4.5%**. In addition, in data set [4], the “Moisture Sorption” value was “Hygroscopic -” and the “Moisture Sorption: deliquesced at” value is listed as “deliquesced at 90% RH”. Further, the Thermal result in data set [5] is on record as “Stable (7 days)”.

`CC1=NS(=O)(=O)c2cc(Cl)ccc2[N-]1.[K+]` [Diazoxide potassium Form F]: in data set [3], the XRPD entry is “Crystalline” and the TGA worked out at 13.1%**. Further, the Thermal entry in data set [5] is listed as “Stable (7 days)”.

Take `CC1=Nc2ccc(Cl)cc2S(=O)(=O)[N-]1.C[N+](C)(C)CCO` [diazoxide choline salt Form A]: the “Moisture Sorption (hygroscopicity)” value in data set [4] (25° C., listed as Form A) is “Hygroscopic - deliquesced”. The water absorbed in data set [4] (60% RH, 25° C., listed as Form A) came out at 2.4 wt %. Besides, the “crystalline form after moisture sorption/desorption (XRPD)” value in data set [4] (listed as Form A) is on record as “consistent with Form A”. Also, in data set [6] (7 and 14 days, n-heptane, dichloromethane, toluene (Table 16 Form B: CH2Cl2, THF, t-AmOH), listed as Form A), the “inter-conversion of the solid form in slurry” value (“inter-conversion” for short) is recorded as “conversion to Form B was observed after seven days; also recorded: readily converted to Form B; also recorded: Converted to Form B after 7”. For the same molecule, the “form conversion and degradation under thermal stress (XRPD, DSC)” value (from here on “form conversion and degradation”) in data set [5] is recorded as “Started to convert to Form”.

In the case of `CC1=Nc2ccc(Cl)cc2S(=O)(=O)[N-]1.C[N+](C)(C)CCO` [diazoxide choline salt Form B], in data set [4] (25° C., listed as Form B), the “Moisture Sorption (hygroscopicity)” value is reported as “hygroscopic; also recorded: Hygroscopic -”. In data set [4] (60% RH, 25° C., listed as Form B), the water absorbed was found to be 7.4 wt %. For the same molecule, in data set [4] (70% relative humidity, 25° C.), the moisture absorbed entry is “over 14.5%”. Also, the “crystalline form after moisture sorption/desorption (XRPD)” value in data set [4] (listed as Form B) is on record as “remained in the Form B crystal structure”. For the same molecule, the “inter-conversion” value in data set [6] (7 and 14 days, n-heptane, dichloromethane, toluene (Table 16 Form B: CH2Cl2, THF, t-AmOH), listed as Form B) is “form conversion was not observed; also recorded: Stable after 14 days in”. Further, the “form conversion and degradation” value in data set [5] is given as “Stable after 14 days at”.

Turning to `CC(C)=O.CC1=NS(=O)(=O)c2cc(Cl)ccc2[N-]1.CC1=NS(=O)(=O)c2cc(Cl)ccc2[N-]1.[K+].[K+]` [diazoxide potassium salt Form C], in data set [4], the “crystalline form after moisture sorption/desorption (XRPD)” value was “consistent with Form D”. Moreover, the “Moisture Sorption (hygroscopicity)” value in data set [4] (25° C.) is “hygroscopic”. Also, the water absorbed result in data set [4] (90% RH, 25° C.) is reported as “approximately 47 wt %”. Also, the “inter-conversion” value in data set [6] (setting [7]) is given as “readily converted to Form D; also recorded: conversion to Form D was observed in all solvents”. In addition, the “form conversion and degradation” value in data set [5] (setting [8]) is given as “stable”.

For the molecule `CC1=NS(=O)(=O)c2cc(Cl)ccc2[N-]1.CC1=NS(=O)(=O)c2cc(Cl)ccc2[N-]1.O.[K+].[K+]` [diazoxide potassium salt Form D], the “crystalline form after moisture sorption/desorption (XRPD)” value in data set [4] is “consistent with Form D”. In data set [4] (25° C.), the “Moisture Sorption (hygroscopicity)” value is “hygroscopic”. In addition, the “inter-conversion” value in data set [6] (setting [7]) is given as “conversion to Form D was observed in all solvents”.

In the case of `C1COCCO1.CC1=NS(=O)(=O)c2cc(Cl)ccc2[N-]1.CC1=NS(=O)(=O)c2cc(Cl)ccc2[N-]1.[K+].[K+]` [diazoxide potassium salt Form F], the “crystalline form after moisture sorption/desorption (XRPD)” value in data set [4] was “consistent with Form D”. Also, in data set [4] (25° C.), the “Moisture Sorption (hygroscopicity)” value is recorded as “hygroscopic”. Also, the water absorbed in data set [4] (90% RH, 25° C.) is around 22 wt %. The “inter-conversion” value in data set [6] (setting [7]) is “readily converted to Form D; also recorded: conversion to Form D was observed in all solvents”.

Take `CC1=NS(=O)(=O)c2cc(Cl)ccc2[N-]1.[Na+]` [sodium salt of diazoxide]: the “Moisture Sorption (hygroscopicity)” value in data set [4] (25° C.) was “hygroscopic”; in data set [4] (25° C., listed as Sodium diazoxide salt), “deliquescent -”. Besides, in data set [4] (25° C.), the “hydrate formation (hysteresis upon desorption)” value is listed as “possible hydrate formation”. The water absorbed came out at 1.2 wt % in data set [4] (60% RH, 25° C.) and 6.6 wt % in data set [4] (80% RH, 25° C.). Also, the “inter-conversion” value in data set [6] (7 and 14 days, n-heptane, dichloromethane, toluene (Table 16 Form B: CH2Cl2, THF, t-AmOH)) is recorded as “no propensity of inter-conversion”. Besides, the “form conversion and degradation” value in data set [5] (setting [8]) was “little propensity to change form or degrade”.

These data come from patent US20120238554A1, “SALTS OF POTASSIUM ATP CHANNEL OPENERS AND USES THEREOF” (priority 2007, published 2012).
